In patent publication US4410512A, “Combinations having synergistic pituitary growth hormone releasing activity” (Beckman Instruments, Inc., priority 1981, dated 1983):
Square brackets hold non-standard residues; d marks the D form. Peptide text beside a SMILES is read from it.

Test system: pituitaries
Experiment: In vitro growth hormone release study (incubated rat pituitaries, GH by RIA)
Assay type: cell-based
Conditions: mean of 9 assays ± SEM
Method: Female rats of the CD-1 strain were housed in a constant temperature room at 24° C. with 14 hours light and 10 hours darkness. The rats were fed Purina brand rat chow ab libitum. All studies were started between 0800 and 1000 hours.
Pituitaries were removed from 20 day old female rats. In each polytetrafluoroethylene beaker (10 ml) was incubated two pituitaries at 36° C. in 1 ml of lactated Ringer's solution in a Dubnoff Shaker (90 cycles/min.). All medium in each beaker was removed each hour (e.g., P1, P2, I3, I4, I5) and then fresh medium was added back to each beaker. Each medium removed was assayed for GH, in duplicate, by a standard radioimmunoassay (RIA).
The growth hormone agonist of Example 1 was not added to the incubation mediums employed during the first hour of the incubation period (P1) or to the incubation mediums employed during the second hour of the incubation period (P2). The growth hormone agonist of Example 1 was dissolved in dimethylsulfoxide (DMSO; 10:1, agonist:DMSO), added to each incubation medium employed during the third hour of the incubation period (I3), to each medium employed during the fourth hour of the incubation period (I4), and to each medium employed during the fifth hour of the incubation period (I5). The release of growth hormone was recorded as ΔGH and calculated by subtracting the amount of GH released at P2 from that released at I3, I4, and I5. The agonist activity was determined from the release at I3, I4, and I5.

Row | Compound | ΔGH (peptide dosage 1 ng/ml incubation medium) [ng/ml incubation medium] | ΔGH (peptide dosage 3 ng/ml incubation medium) [ng/ml incubation medium] | ΔGH (peptide dosage 10 ng/ml incubation medium) | ΔGH (zeranol dosage 300 ng/ml incubation medium, pituitaries of 20 day old female rats, I3-I5 minus P2) [ng/ml incubation medium] | ΔGH (zeranol dosage 3,000 ng/ml incubation medium) [ng/ml incubation medium] | ΔGH (zeranol dosage 30,000 ng/ml incubation medium) [ng/ml incubation medium] | ΔGH (zeranol dosage 100,000 ng/ml incubation medium) [ng/ml incubation medium]
1 | C[C@H](NC(=O)[C@@H](Cc1c[nH]c2ccccc12)NC(=O)[C@@H](N)Cc1c[nH]cn1)C(=O)N[C@@H](Cc1c[nH]c2ccccc12)C(=O)N[C@H](Cc1ccccc1)C(=O)N[C@@H](CCCCN)C(N)=O [H2 -His-D-Trp-Ala-Trp-D-Phe-Lys-NH2] (H-H[dW]AW[dF]K-NH2) | 887 ± 98 | 821 ± 138 | 2,759 ± 315 ng/ml incubation medium | – | – | – | –
2 | C[C@H]1CCC[C@H](O)CCCCCc2cc(O)cc(O)c2C(=O)O1 [Zeranol, zeranol] | – | – | – | 83 ± 63 | 87 ± 59 | 683 ± 187 | -133 ± 98
